Test results from US7071218B2, “N-substituted heterocycles for the treatment of hypercholesteremia, dyslipidemia and other metabolic disorders; cancer, and other diseases” (Incyte San Diego Incorporated, priority 2001, dated 2006).

Columns and labels:
PPARγ = biological target: T1, PPARγ (Homo sapiens, UniProt P37231); test: In vitro transactivation assay in CV-1 cells, antagonism of BRL49653-induced Gal-PPARγ activation; format: cell-based; details: with 1 μM agonist BRL49653, dose-dependent
T1 construct: expressed in transfected cells; host or cells: CV-1 (green monkey kidney) cells, transient calcium phosphate transfection
T1 sequence (P37231 238-503 limits assumed): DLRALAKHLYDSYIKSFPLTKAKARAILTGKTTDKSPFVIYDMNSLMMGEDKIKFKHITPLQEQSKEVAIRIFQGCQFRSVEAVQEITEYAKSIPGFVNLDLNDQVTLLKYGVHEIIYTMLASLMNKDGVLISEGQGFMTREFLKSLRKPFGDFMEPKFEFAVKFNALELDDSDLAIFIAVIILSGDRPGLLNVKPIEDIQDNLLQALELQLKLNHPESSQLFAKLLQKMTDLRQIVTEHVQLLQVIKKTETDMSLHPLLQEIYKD
Excerpt: (§1) In vitro screens such as the transactivation assay can be used to measure the ability of a compound to inhibit a nuclear receptor regulating lipid or carbohydrate uptake, synthesis or metabolism. In the assay described herein compounds can be identified that can inhibit activation of the following nuclear receptors: LXR, PPARα, PPARγ and FXR. This activity can be useful to treat lipid disorders such as hypercholesteremia and obesity.
(§2) Cell line: Kidney Green Monkey CV-1 cells.
(§3) Growing culturing medium: Dulbecco's modified Eagle's medium (DMEM) supplememnted with 10% fetal calf serum (FCS).
(§4) Procedure: CV-1 cells were plated in 48 well-plate culture plates, at a density of 10,000 cells/well, 24 h prior to transfection. One to three hours before transfection, cells were fed with fresh medium. A modified calcium phosphate precipitation procedure was used for transient transfection (Pfahl, M. et al., 1990, Methods in Enzymology 189: 256).
(§5) Typically, 40 ng reporter plasmid and 20 ng of each receptor expression vector were mixed, together with 10 ng of β-galactosidase control plasmid (pCH110, Pharmacia, Piscataway, N.J.) and Bluescript plasmid to obtain a total of 400 ng DNA per well. To this mixture 1 μl of 2.5M CaCl2 and 10 μl of BBS buffer, pH 6.95, were added afterward. […]

3T3-L1 cells = test: 3T3-L1 adipocyte differentiation (lipid content), alone or with rosiglitazone (BRL49653); format: cell-based, mouse; details: 7 days of treatment
Excerpt: The mouse preadipocyte cell line 3T3-L1 has been extensively used to study adipocyte differentiation. Upon stimulation with differentiating agents, preadipocytes typically undergo one cell cycle expansion and then they are growth arrested and dramatically change their shape to become more rounded cells, loaded with lipids, in a fashion closely reflecting adipogenesis in vivo. In this well-known process of differentiation, peroxisome proliferator activated receptor gamma (PPARγ) and retinoid X receptor (RXR) play a key role. PPARγ binds as an obligatory heterodimer with RXR to specific responsive sequences in the promoter region of target genes. In the particular case of PPARγ/RXR heterodimers, both receptors can be activated via their specific ligands. As a consequence of such activation, adipocyte-specific genes are turned on (C/EBP, aP2, LPL, adipsin, etc) and adipocyte differentiation results. Because lipid accumulation is the endpoint of adipocyte differentiation, the quantification of lipids which have accumulated in cells upon treatment with the compound(s) of interest, will indicate the ability of that compound to trigger adipocyte differentiation. More importantly, the potency of that compound can be estimated as well based on the total amount of lipids accumulated. The amount of lipid measured at the end of the assay for each tested compound is here compared to that of Compound 73 at 0.1 μM, which is considered 100% (see FIG. 11A).
In the particular case of measuring the potential antagonistic activity of some compounds, the putative antagonist is combined together with an agonist (such as the PPARγ agonist BRL49653). Thus, the amount of lipids accumulated in response to BRL49653 (considered as 100% in this case), is decreased by the compound with antagonistic activity (see FIG. 11B).
Materials and Methods: Mouse embryo fibroblast 3T3-L1 cell line, from American Type Culture Collection (ATCC), was used as a model of adipocyte differentiation.
Growing medium (GM): DME Dulbecco's modified Eagle's medium containing 4500 mg/L glucose; 4 mM L-glutamine; 10 U/ml Pen-G; 10 mcg/ml and 10% Calf Serum (CS).
Differentiation medium (DM): DME Dulbecco's modified Eagle's medium containing 4500 mg/L glucose; 4 mM L-glutamine; 10 U/ml Pen-G; 10 mcg/ml and 10% Fetal Calf Serum (FCS). Cells are always kept at 10% CO2.
Cells were seeded at 3,000 cells/well in 96 well-tissue culture plates in growing medium.
Two days after reaching confluence, cells were treated with the different compounds of interest in DM (Day 0). Drugs were replaced every 2–3 days in DM. Differentiation was assessed after 7 days of treatment, by measuring the lipid content in the cells, using the Triglyceride (INFINITY) reagent (Quantitative assay). • Controls: All cells, including control cells (vehicle), are treated with the same volume of dimethyl sulfoxide (DMSO) never exceeding 0.1% final solvent concentration. As a positive control for differentiation, cells were treated with 10 μg insulin per ml and 2.5 μM dexamethasone (Ins/Dex).

LXR = test: In vitro transactivation assay in CV-1 cells, antagonism of T0901317-induced Gal-LXR activation; format: cell-based; details: at 10 μM, with 1 μM agonist T0901317, dose-dependent
Excerpt: as §1, §2, §3, §4, §5

- inhibition at 10 µM (PPARγ): 80 to 90%
SMILES: CN(C)c1cc2c(cc1-c1ccc3cc(/C=C4\SC(=S)N(CC(=O)O)C4=O)ccc3c1)C(C)(C)CCC2(C)C [Compound 7, {5-[6-(3-Dimethylamino-5,5,8,8-tetramethyl-5,6,7,8-tetrahydro-naphthalen-2-yl)-naphthalen-2-ylmethylene]-4-oxo-2-thioxo-thiazolidin-3-yl}-acetic acid]
- lipid accumulation / differentiation of 3T3-L1 cells by the compound alone (3T3-L1 cells; 1e-10M to 1e-5M): lacked the ability to differentiate 3T3-L1 cells by themselves
- inhibition of adipocyte differentiation / lipid accumulation induced by rosiglitazone (BRL49653) (3T3-L1 cells; in combination with rosiglitazone): strongly inhibited
- inhibition of T0901317-induced LXR activation (LXR): 80–90%
